Assay results as given in US5935973A, “Heterocyclcarboxamide derivatives and their use as therapeutic agents” (Knoll Aktiengesellschaft, priority 1995, dated 1999).

Molecular target: T1, α2D-adrenoceptors (Rattus norvegicus, UniProt P22909)
T1 construct: Frontal cortical tissue from the brains of male Charles River CD rats; from tissue; host or cells: rat frontal cortex membranes
T1 sequence (P22909 1-465): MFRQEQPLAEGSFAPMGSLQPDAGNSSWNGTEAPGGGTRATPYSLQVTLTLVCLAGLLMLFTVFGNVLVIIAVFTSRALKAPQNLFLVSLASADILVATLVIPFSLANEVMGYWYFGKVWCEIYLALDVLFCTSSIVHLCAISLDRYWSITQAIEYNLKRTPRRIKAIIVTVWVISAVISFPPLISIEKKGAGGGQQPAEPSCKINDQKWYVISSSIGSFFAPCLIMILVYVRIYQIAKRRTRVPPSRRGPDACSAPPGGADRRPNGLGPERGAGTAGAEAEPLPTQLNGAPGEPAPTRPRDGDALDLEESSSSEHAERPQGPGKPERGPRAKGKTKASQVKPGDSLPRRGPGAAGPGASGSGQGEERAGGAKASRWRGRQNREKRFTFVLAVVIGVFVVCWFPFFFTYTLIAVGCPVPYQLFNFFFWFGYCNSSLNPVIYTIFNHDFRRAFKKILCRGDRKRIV
Assay: inhibition of tritiated idazoxan binding to α2D-adrenoceptors in rat frontal cortical tissue
Conditions: rat frontal cortex; for inhibition at 1 µM: at 10^-6 M, tritiated idazoxan, read-out: % displacement of radio ligand, α2D; for Ki: tritiated idazoxan 1 nM, 0° C., 75 min
Method: Frontal cortical tissue from the brains of male Charles River CD rats weighing between 150-250 g were homogenised in ice-cold 0.25 M sucrose (1:30 w/v) and centrifuged at 1,000 g at 4° C. for 12 minutes. The supernatant was stored on ice and the pellet was rehomogenised in 0.25 M sucrose (1:15 w/v) and centrifuged at 850 g at 4° C. for 12 minutes. Combined supernatants were diluted with 5 mM Tris-HCl (pH 7.5) containing 5 mM ethylenediamine tetraacetic acid (EDTA) readjusted to pH 7.5 (at 25° C.) with 1 M sodium hydroxide to 1:80 w/v, and centrifuged at 30,000 g at 4° C. for 10 minutes. The resulting pellet was resuspended in 50 mM Tris-HCl (pH 7.5) containing 5.68 mM L-ascorbic acid and 0.5 mM EDTA readjusted to pH 7.5 (at 25° C.) with 1 M sodium hydroxide, and centrifuged at 30,000 g for 10 minutes. The final pellet was resuspended in 50 mM Tris-HCl (pH 7.5) containing 5.68 mM L-ascorbic acid and 5 mM EDTA (equivalent to 12.5 mg wet weight of tissue/ml) and used immediately in the binding assay. Aliquots (400 μl; equivalent to 5 mg wet weight of tissue/tube) of this suspension were added to tubes containing the ligand (50 μl; 1 nM) and distilled water (50 μl; total binding) or phentolamine (50 μl; 5 μM; non-specificbinding) or test compound (50 μl; at a single concentration of 10^-6 M or at 10 concentrations ranging from 10^-11 -10^-3 M). The ligand was tritiated idazoxan ((1,4-[6,7(n)-^3 H]benzodioxan-2-yl)-2-imidazoline hydrochloride) and the mixture was incubated at 0° C. for 75 minutes before the incubation was terminated by rapid filtration.
The filters were washed with ice-cold Tris-HCl buffer and dried. The filters were punched out into vials, scintillation fluid added and radioactivity determined by liquid scintillation counting. […] Displacement curves were then produced for those compounds which displaced ≥50% of specific binding of the tritiated ligand at 10^-6 M using a range of concentrations of the compound. The concentration which gave 50% inhibition of specific binding (IC50) was obtained from the curve. The inhibition coefficient Ki was then calculated using the formula [formula] in which [ligand] is the concentration of the tritiated ligand used and KD is the equilibrium dissociation constant for the ligand.

Nc1ncccc1C(=O)NCC1CCN(C[C@H]2COc3ccc(Cl)cc3O2)CC1 [Example 1, (S)-(-)-2-amino-N-{[1-(7-chloro-1,4-benzodioxan-2-ylmethyl)-4-piperidyl]methyl}pyridine-3-carboxamide]
inhibition at 1 µM: 97%

Nc1ncccc1C(=O)NCC1CCN(C[C@H]2COc3cccc(Cl)c3O2)CC1 [Example 2, (S)-2-amino-N-{[1-(8-chloro-1,4-benzodioxan-2-ylmethyl)-4-piperidyl]methyl}-pyridine-3-carboxamide]
inhibition at 1 µM: 98%

Nc1ncccc1C(=O)NCC1CCN(C[C@H]2COc3cccc(F)c3O2)CC1 [Example 3, (S)-(-)-2-amino-N-{[1-(8-fluoro-1,4-benzodioxan-2-ylmethyl)-4-piperidyl]methyl}pyridine-3-carboxamide]
inhibition at 1 µM: 99%

Nc1ncccc1C(=O)NCC1CCN(CC2COc3ccccc3O2)CC1 (stereo not drawn) [Example 4, 2-amino-N-{[1-(1,4-benzodioxan-2-ylmethyl)-4-piperidyl]methyl}pyridine-3-carboxamide]
inhibition at 1 µM: 98%

Cc1ccc2c(c1)O[C@@H](CN1CCC(CNC(=O)c3cccnc3N)CC1)CO2 [Example 5, (S)-2-amino-N-{[1-(7-methyl-1,4-benzodioxan-2-ylmethyl)-4-piperidyl]methyl}pyridine-3-carboxamide]
inhibition at 1 µM: 96%

O=C(NCC1CCN(CC2COc3ccccc3O2)CC1)c1ccccn1 (stereo not drawn) [Example 6, N-{[1-(1,4-benzodioxan-2-ylmethyl)-4-piperidyl]methyl}pyridine-2-carboxamide]
Ki: 4.4 nM

COc1ccc2c(c1)O[C@@H](CN1CCC(CNC(=O)c3cccnc3N)CC1)CO2 [Example 7, (S)-2-amino-N{[1-(7-methoxy-1,4-benzodioxan-2-ylmethyl)-4-piperidyl]methyl}-pyridine-3-carboxamide]
Ki: 3.6 nM

O=C(NCC1CCN(CC2COc3ccccc3O2)CC1)c1cccc2cccnc12 (stereo not drawn) [Example 8, N-{[1-(1,4-benzodioxan-2-ylmethyl)-4-piperidyl]methyl}quinoline-8-carboxamide]
inhibition at 1 µM: 100%

Cc1ncccc1C(=O)NCC1CCN(C[C@H]2COc3cccc(Cl)c3O2)CC1 [Example 9, (S)-N-{[1-(8-chloro-1,4-benzodioxan-2-ylmethyl)-4-piperidyl]methyl}-2-methylpyridine-3-carboxamide]
inhibition at 1 µM: 97%

Nc1ncccc1C(=O)NCC1CCN(CC2COc3ccc(F)cc3O2)CC1 (stereo not drawn) [Example 10, 2-amino-N-{[1-(7-fluoro-1,4-benzodioxan-2-ylmethyl)-4-piperidyl]methyl}pyridine-3-carboxamide]
Ki: 6.4 nM

COc1cccc2c1OC(CN1CCC(CNC(=O)c3cccnc3N)CC1)CO2 (stereo not drawn) [Example 11, 2-amino-N-{[1-(8-methoxy-1,4-benzodioxan-2-ylmethyl)-4-piperidyl]methyl}pyridine-3-carboxamide]
inhibition at 1 µM: 98%

O=C(NCC1CCN(C[C@H]2COc3ccc(Cl)cc3O2)CC1)c1ccccn1 [Example 12, (S)-N-{[1-(7-chloro-1,4-benzodioxan-2-ylmethyl)-4-piperidyl]methyl}pyridine-2-carboxamide]
inhibition at 1 µM: 95%

Cc1cccc2c1O[C@@H](CN1CCC(CNC(=O)c3cccnc3N)CC1)CO2 [Example 13, (S)-2-amino-N-{[1-(8-methyl-1,4-benzodioxan-2-ylmethyl)-4-piperidyl]methyl}pyridine-3-carboxamide]
inhibition at 1 µM: 99%

Cc1ccc(C(=O)NCC2CCN(C[C@H]3COc4ccc(Cl)cc4O3)CC2)c(N)n1 [Example 14, (S)-2-amino-N-{[1-(7-chloro-1,4-benzodioxan-2-ylmethyl)-4-piperidyl]methyl}-6-methylpyridine-3-carboxamide]
inhibition at 1 µM: 97%

Nc1ncccc1C(=O)NCC1CCN(C[C@H]2COc3ccccc3O2)CC1 [Example 15, (S)-2-amino-N-{[1-(1,4-benzodioxan-2-ylmethyl)-4-piperidyl]methyl}pyridine-3-carboxamide]
inhibition at 1 µM: 99%

Nc1ccsc1C(=O)NCC1CCN(CC2COc3ccccc3O2)CC1 (stereo not drawn) [Example 16, 3-amino-N-{[1-(1,4-benzodioxan-2-ylmethyl)-4-piperidyl]methyl}thiophene-2-carboxamide]
inhibition at 1 µM: 99%

Nc1ccsc1C(=O)NCC1CCN(C[C@H]2COc3ccc(Cl)cc3O2)CC1 [Example 17, (S)-3-amino-N-{[1-(7-chloro-1,4-benzodioxan-2-ylmethyl)-4-piperidyl]methyl}thiophene-2-carboxamide]
Ki: 27 nM

Cc1ncccc1C(=O)NCC1CCN(C[C@H]2COc3ccc(Cl)cc3O2)CC1 [Example 18, (S)-N-{[1-(7-chloro-1,4-benzodioxan-2-ylmethyl)-4-piperidyl]methyl}-2-methylpyridine-3-carboxamide]
inhibition at 1 µM: 89%

Nc1ncccc1C(=O)NCC1CCN(C[C@H]2COc3cccc(C(F)(F)F)c3O2)CC1 [Example 20, (S)-2-amino-N-{[1-(8-trifluoromethyl-1,4-benzodioxan-2-ylmethyl)-4-piperidyl]methyl}pyridine-3-carboxamide]
inhibition at 1 µM: 98%

O=C(NCC1CCN(C[C@H]2COc3ccc(Cl)cc3O2)CC1)c1cccnc1 [Example 22, (S)-N-{[1-(7-chloro-1,4-benzodioxan-2-ylmethyl)-4-piperidyl]methyl}pyridine-3-carboxamide]
inhibition at 1 µM: 99%

O=C(NCC1CCN(C[C@H]2COc3ccc(Cl)cc3O2)CC1)c1cccc2cccnc12 [Example 23, (S)-N-{[1-(7-chloro-1,4-benzodioxan-2-ylmethyl)-4-piperidyl]methyl}quinoline-8-carboxamide]
inhibition at 1 µM: 95%
